The supplement of paper PMC11061612

Key:
[1] = tested on: NCI-H1155 (Non-Small Cell Lung Carcinoma); experiment: Bliss excess, mean over the matrix (fraction); higher = more synergy
Summary of the method: (§1)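 After 24 hours at 37°C and 5% CO2 in 1536-well plates, cells in DMEM/F12 or RPMI plus 10% FBS received two-drug dose matrices for 72 hours. Viability came from CellTiter-Glo 2.0 luminescence and was scaled as inhibition, anchored at 0 by vehicle wells and at 1 by blank wells. Combination Emax is taken as the second-highest inhibition in the matrix, and Bliss excess as the observed combination effect less EA + EB − EA·EB, with EA and EB the single-agent effects.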

[2] = tested on: NCI-H196 (Small Cell Lung Carcinoma); experiment: as above
Summary of the method: as §1

[3] = tested on: SJRH30 (Rhabdomyosarcoma); experiment: as above
Summary of the method: as §1

[4] = tested on: RPMI-8866 (Chronic Myelogenous Leukemia); experiment: as above
Summary of the method: as §1

[5] = tested on: RERF-LC-KJ (Lung Adenocarcinoma); experiment: as above
Summary of the method: as §1

[6] = tested on: HSC-3 (Oral Cavity Carcinoma); experiment: as above
Summary of the method: as §1

[7] = tested on: PC-14 (Lung Adenocarcinoma); experiment: as above
Summary of the method: as §1

786-0 (Kidney Carcinoma) [8] = experiment: as above
Summary of the method: as §1

[9] = tested on: HTC-C3 (Thyroid Gland Carcinoma); experiment: as above
Summary of the method: as §1

HuO-3N1 (Osteosarcoma) [10] = experiment: as above
Summary of the method: as §1

[11] = tested on: RL95-2 (Endometrial Carcinoma); experiment: as above
Summary of the method: as §1

[12] = tested on: Calu-6 (Non-Small Cell Lung Carcinoma); experiment: as above
Summary of the method: as §1

[13] = tested on: NCI-H1623 (Lung Adenocarcinoma); experiment: as above
Summary of the method: as §1

[14] = tested on: SNU-175 (Colorectal Carcinoma); experiment: as above
Summary of the method: as §1

[15] = tested on: OCI-AML5 (Acute Myeloid Leukemia); experiment: as above
Summary of the method: as §1

[16] = tested on: JHH-1 (Hepatocellular Carcinoma); experiment: as above
Summary of the method: as §1

[17] = tested on: AN3-CA (Endometrial Carcinoma); experiment: as above
Summary of the method: as §1

[18] = tested on: BALL-1 (B-Lymphoblastic Leukemia); experiment: as above
Summary of the method: as §1

[19] = tested on: NCI-H1563 (Lung Adenocarcinoma); experiment: as above
Summary of the method: as §1

ES-2 (Ovarian Carcinoma) [20] = experiment: as above
Summary of the method: as §1

[21] = tested on: OVTOKO (Ovarian Carcinoma); experiment: as above
Summary of the method: as §1

[22] = tested on: AsPC-1 (Pancreatic Carcinoma); experiment: as above
Summary of the method: as §1

RT4 (Bladder Carcinoma) [23] = experiment: as above
Summary of the method: as §1

[24] = tested on: NCI-H1155 (Non-Small Cell Lung Carcinoma); experiment: combination Emax (second highest fraction inhibited in the dose matrix, 72 h); higher = more inhibition; extreme values may be limits of the assay
Summary of the method: as §1

[25] = tested on: NCI-H196 (Small Cell Lung Carcinoma); experiment: as above
Summary of the method: as §1

[26] = tested on: SJRH30 (Rhabdomyosarcoma); experiment: as above
Summary of the method: as §1

[27] = tested on: RPMI-8866 (Chronic Myelogenous Leukemia); experiment: as above
Summary of the method: as §1

[28] = tested on: RERF-LC-KJ (Lung Adenocarcinoma); experiment: as above
Summary of the method: as §1

[29] = tested on: HSC-3 (Oral Cavity Carcinoma); experiment: as above
Summary of the method: as §1

[30] = tested on: PC-14 (Lung Adenocarcinoma); experiment: as above
Summary of the method: as §1

786-0 (Kidney Carcinoma) [31] = experiment: as above
Summary of the method: as §1

[32] = tested on: HTC-C3 (Thyroid Gland Carcinoma); experiment: as above
Summary of the method: as §1

HuO-3N1 (Osteosarcoma) [33] = experiment: as above
Summary of the method: as §1

[34] = tested on: RL95-2 (Endometrial Carcinoma); experiment: as above
Summary of the method: as §1

[35] = tested on: Calu-6 (Non-Small Cell Lung Carcinoma); experiment: as above
Summary of the method: as §1

[36] = tested on: NCI-H1623 (Lung Adenocarcinoma); experiment: as above
Summary of the method: as §1

[37] = tested on: SNU-175 (Colorectal Carcinoma); experiment: as above
Summary of the method: as §1

[38] = tested on: OCI-AML5 (Acute Myeloid Leukemia); experiment: as above
Summary of the method: as §1

[39] = tested on: JHH-1 (Hepatocellular Carcinoma); experiment: as above
Summary of the method: as §1

[40] = tested on: AN3-CA (Endometrial Carcinoma); experiment: as above
Summary of the method: as §1

[41] = tested on: BALL-1 (B-Lymphoblastic Leukemia); experiment: as above
Summary of the method: as §1

[42] = tested on: NCI-H1563 (Lung Adenocarcinoma); experiment: as above
Summary of the method: as §1

ES-2 (Ovarian Carcinoma) [43] = experiment: as above
Summary of the method: as §1

[44] = tested on: OVTOKO (Ovarian Carcinoma); experiment: as above
Summary of the method: as §1

[45] = tested on: AsPC-1 (Pancreatic Carcinoma); experiment: as above
Summary of the method: as §1

RT4 (Bladder Carcinoma) [46] = experiment: as above
Summary of the method: as §1
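Throughout, for Bliss excess, mean over the matrix: after 72 h of two-drug dosing.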

Structure (SMILES): COc1nnc2ccc(N3CCC(c4ccc(OCCN5CCN(C)C(=O)[C@H]5C)cc4)CC3)nn12 [AZD5153] + CN(CC[C@H](CSC1=CC=CC=C1)NC2=C(C=C(C=C2)S(=O)(=O)NC(=O)C3=CC=C(C=C3)N4CCC(CC4)[C@H](C5=CC=CC=C5C6=CC=C(C=C6)Cl)O)S(=O)(=O)C(F)(F)F)CCO [AZD4320] (first compound max 1 µM, 7x7, partner max 1 µM)
- Bliss excess [1]: 0.0603
- Bliss excess [2]: 0.0277
- Bliss excess [3]: 0.0517
- Bliss excess [4]: -0.0318
- Bliss excess [5]: -0.0066
- Bliss excess [6]: 0.0794
- Bliss excess [7]: 0.0111
- Bliss excess (786-0 (Kidney Carcinoma) [8]): 0.0508
- Bliss excess [9]: 0.0859
- Bliss excess (HuO-3N1 (Osteosarcoma) [10]): 0.0645
- Bliss excess [11]: 0.0571
- Bliss excess [12]: -0.0429
- Bliss excess [13]: -0.0087
- Bliss excess [14]: 0.002
- Bliss excess [15]: 0.0299
- Bliss excess [16]: 0.0585
- Bliss excess [17]: 0.0161
- Bliss excess [18]: -0.0008
- Bliss excess [19]: 0.0003
- Bliss excess (ES-2 (Ovarian Carcinoma) [20]): 0.0277
- Bliss excess [21]: 0.0926
- Bliss excess [22]: -0.08
- Bliss excess (RT4 (Bladder Carcinoma) [23]): 0.0826
- combination Emax [24]: 0.974
- combination Emax [25]: 0.276
- combination Emax [26]: 0.706
- combination Emax [27]: 0.87
- combination Emax [28]: 0.979
- combination Emax [29]: 0.712
- combination Emax [30]: 0.421
- combination Emax (786-0 (Kidney Carcinoma) [31]): 0.557
- combination Emax [32]: 0.968
- combination Emax (HuO-3N1 (Osteosarcoma) [33]): 0.466
- combination Emax [34]: 0.452
- combination Emax [35]: 0.574
- combination Emax [36]: 0.46
- combination Emax [37]: 0.759
- combination Emax [38]: 1
- combination Emax [39]: 0.777
- combination Emax [40]: 0.255
- combination Emax [41]: 1
- combination Emax [42]: 0.536
- combination Emax (ES-2 (Ovarian Carcinoma) [43]): 0.745
- combination Emax [44]: 0.495
- combination Emax [45]: 0.559
- combination Emax (RT4 (Bladder Carcinoma) [46]): 0.545

Structure (SMILES): C[C@@H](c1ccc2nccn2c1)n1nnc2ncc(-c3cnn(C)c3)nc21 [Savolitinib] + CN(CC[C@H](CSC1=CC=CC=C1)NC2=C(C=C(C=C2)S(=O)(=O)NC(=O)C3=CC=C(C=C3)N4CCC(CC4)[C@H](C5=CC=CC=C5C6=CC=C(C=C6)Cl)O)S(=O)(=O)C(F)(F)F)CCO [AZD4320] (first compound max 1 µM, 7x7, partner max 1 µM)
- Bliss excess [1]: -0.0513
- Bliss excess [2]: -0.0847
- Bliss excess [3]: -0.0203
- Bliss excess [4]: -0.0815
- Bliss excess [5]: -0.0454
- Bliss excess [6]: -0.0152
- Bliss excess [7]: 0.0011
- Bliss excess (786-0 (Kidney Carcinoma) [8]): -0.0642
- Bliss excess [9]: -0.0215
- Bliss excess (HuO-3N1 (Osteosarcoma) [10]): -0.0513
- Bliss excess [11]: -0.0297
- Bliss excess [12]: -0.005
- Bliss excess [13]: -0.0231
- Bliss excess [14]: -0.045
- Bliss excess [15]: -0.0418
- Bliss excess [16]: -0.0341
- Bliss excess [17]: -0.0575
- Bliss excess [18]: -0.0078
- Bliss excess [19]: -0.0266
- Bliss excess (ES-2 (Ovarian Carcinoma) [20]): -0.0383
- Bliss excess [21]: -0.0718
- Bliss excess [22]: -0.0896
- Bliss excess (RT4 (Bladder Carcinoma) [23]): -0.0284
- combination Emax [24]: 0.582
- combination Emax [25]: 0.2
- combination Emax [26]: 0.265
- combination Emax [27]: 0.366
- combination Emax [28]: 0.206
- combination Emax [29]: 0.185
- combination Emax [30]: 0.173
- combination Emax (786-0 (Kidney Carcinoma) [31]): 0.149
- combination Emax [32]: 0.282
- combination Emax (HuO-3N1 (Osteosarcoma) [33]): 0.201
- combination Emax [34]: 0.167
- combination Emax [35]: 0.414
- combination Emax [36]: 0.255
- combination Emax [37]: 0.349
- combination Emax [38]: 1
- combination Emax [39]: 0.356
- combination Emax [40]: 0.217
- combination Emax [41]: 1
- combination Emax [42]: 0.213
- combination Emax (ES-2 (Ovarian Carcinoma) [43]): 0.236
- combination Emax [44]: 0.274
- combination Emax [45]: 0.572
- combination Emax (RT4 (Bladder Carcinoma) [46]): 0.376
